# According to patent publication US20100017900A1, “Prostate Epithelial Androgen Receptor Suppresses Prostate Growth and Tumor Invasion” (University of Rochester, priority 2006, published 2010):
# “Also recorded” adds a separate entry of the source.
# Assays:
# MMP-9 = MMP-9 enzyme (gelatinase) / zymography assay in PC3-AR9 cells; format: cell-based, human; conditions: for gelatinase activity of MMP-9: PC3-AR9 cells
# PC3-AR9 cells = experiment: Boyden chamber Matrigel invasion assay of PC3-AR9 cells; format: cell-based, human; conditions: Matrigel coated Boyden chambers
# Procedure: The invasion assays used Boyden chambers (Becton Dickinson) with […] inserts and 8 μm pores. Matrigel Matrix ([…] surface area) was placed in medium (1:5 dilution) on the inner layer of the invasion chamber and incubated at 37° C. for 30 min before adding the cells.
smiles,measurement,setting,value
"C[C@]12CCC(=O)C[C@@H]1CC[C@@H]1[C@@H]2CC[C@]2(C)[C@@H](O)CC[C@@H]12 [DHT, dihydrotestosterone]",gelatinase activity of MMP-9,MMP-9; 1 nM DHT,suppress
same,invasion of PC3-AR9,"PC3-AR9 cells; in the presence of DHT, compared to PC3-v",decreased
CC(C)(O)C(=O)Nc1ccc([N+](=O)[O-])c(C(F)(F)F)c1 [HF],gelatinase activity of MMP-9,MMP-9; 1 μM HF added to 1 nM DHT,restore
same,invasion of PC3-AR9,PC3-AR9 cells; addition of HF to DHT,increased
CCCCCCCCCCCCCC(=O)O[C@@H]1[C@@H](C)[C@@]2(O)[C@@H](C=C(CO)C[C@]3(O)C(=O)C(C)=C[C@@H]23)[C@@H]2C(C)(C)[C@]12OC(C)=O [TPA],activity of MMP-9 (zymography),MMP-9; 10 nM TPA,increased; also recorded: enhanced
